Consider nine compounds from paper PMC2690642 (Journal of neurochemistry, 2008).

For experiment [1], the target named is T1, NR2B-R (regulatory domain of NMDA receptor NR2B subunit) (Rattus norvegicus, UniProt Q00960). In words: [14C]spermine filter binding to purified NR2B-R. Particulars: for [14C]Spermine bound to NR2B-R in presence of addition, %: 40 µM [14C]spermine, % of binding with no addition; for Effect of aminoglycoside on spermine binding to NR2B-R: 20 µM [14C]spermine, aminoglycosides 75 to 300 µM (Fig. 10).

For experiment [2], the target named is T1, NR2B-R (regulatory domain of NMDA receptor NR2B subunit). Description: [3H]ifenprodil filter binding to purified NR2B-R. The settings on record: for [3H]Ifenprodil bound to NR2B-R in presence of addition, %: 0.4 µM [3H]ifenprodil, % of binding with no addition.
Experiment [3] concerns the target T2, NR1-R (regulatory domain of NMDA receptor NR1 subunit) (Rattus norvegicus, UniProt P35439). In words: [3H]ifenprodil filter binding to purified NR1-R.
Experiment [4] has as its target T3, NR2A-R (regulatory domain of NMDA receptor NR2A subunit) (Rattus norvegicus, UniProt Q00959). In words: [3H]ifenprodil filter binding to purified NR2A-R. The settings on record: 0.1 to 0.8 µM [3H]ifenprodil.
The next experiment concerns the target NR2A-R (Rattus norvegicus, UniProt Q00959). Description: Circular dichroism. It counts as binding.
Experiment [5] has as its target NR1/NR2B receptors. The settings on record: read-out: IC50 for ifenprodil inhibition at intact, functional NR1/NR2B receptors; pH 7.6; ref Williams 1993; cited from earlier work.
In experiment [6] the target is T3, NR2A-R (regulatory domain of NMDA receptor NR2A subunit). Description: [14C]spermine filter binding to purified NR2A-R. Particulars: for Effect of aminoglycoside on spermine binding to NR2A-R: 20 µM [14C]spermine, aminoglycosides 75 to 300 µM (Fig. 10).
Experiment [7] deals with T2, NR1-R (regulatory domain of NMDA receptor NR1 subunit). In words: [14C]spermine filter binding to purified NR1-R. Particulars: for Effect of aminoglycoside on spermine binding to NR1-R: 20 µM [14C]spermine, aminoglycosides 75 to 300 µM (Fig. 10).
Another experiment concerns the target NR1-R (Rattus norvegicus, UniProt P35439). Description: Circular dichroism. It counts as binding. In general terms: Circular dichroism is widely used to follow secondary structure.
The target in the next experiment is NR2B-R (Rattus norvegicus, UniProt P35439+Q00960). Description: Circular dichroism. It counts as binding.
Experiment [8] concerns the target T4, NR1-R (E181Q) (Rattus norvegicus, UniProt P35439, E181Q).
The target in a further experiment is ovalbumin (Gallus gallus, UniProt P01012). The settings on record: control, unrelated protein.
Experiment [9] concerns the target T4, NR1-R (E181Q). Description: biochemical.
In another experiment the target is NR1/NR2A receptors (Rattus norvegicus, UniProt P35439+Q00959). Description: Voltage clamp recording in Xenopus oocytes expressing NR1/NR2A.
Experiment [10] deals with NR1/NR2B receptors (Rattus norvegicus, UniProt P35439+Q00960). In words: Voltage clamp recording in Xenopus oocytes expressing NR1/NR2B.

pEC50, pIC50, pKd: −log10 of the molar value.

T1 sequence (Q00960 27-390): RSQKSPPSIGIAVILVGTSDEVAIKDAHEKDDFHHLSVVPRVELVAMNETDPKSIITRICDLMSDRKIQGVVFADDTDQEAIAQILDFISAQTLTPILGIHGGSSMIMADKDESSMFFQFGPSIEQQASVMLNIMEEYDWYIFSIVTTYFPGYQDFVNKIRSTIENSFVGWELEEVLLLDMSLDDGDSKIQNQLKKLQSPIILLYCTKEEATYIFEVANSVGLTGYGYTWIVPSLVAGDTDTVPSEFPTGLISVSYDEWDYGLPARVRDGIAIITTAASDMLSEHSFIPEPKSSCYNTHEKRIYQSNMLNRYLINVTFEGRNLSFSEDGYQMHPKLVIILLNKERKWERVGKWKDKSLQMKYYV
T3 sequence (Q00959 23-389): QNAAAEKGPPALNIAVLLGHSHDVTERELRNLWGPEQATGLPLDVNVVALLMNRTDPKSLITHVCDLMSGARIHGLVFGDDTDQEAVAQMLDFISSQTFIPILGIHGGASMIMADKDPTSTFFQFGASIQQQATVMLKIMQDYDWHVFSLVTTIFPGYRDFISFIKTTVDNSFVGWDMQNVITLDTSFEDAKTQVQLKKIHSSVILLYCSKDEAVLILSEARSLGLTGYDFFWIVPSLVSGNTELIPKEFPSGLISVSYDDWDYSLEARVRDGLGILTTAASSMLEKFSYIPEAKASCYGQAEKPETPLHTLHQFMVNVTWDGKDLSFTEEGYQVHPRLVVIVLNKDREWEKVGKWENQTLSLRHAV
Chain of NR1/NR2B receptors (Rattus norvegicus, UniProt P35439+Q00960) (Q00960 27-1482, other chains not shown): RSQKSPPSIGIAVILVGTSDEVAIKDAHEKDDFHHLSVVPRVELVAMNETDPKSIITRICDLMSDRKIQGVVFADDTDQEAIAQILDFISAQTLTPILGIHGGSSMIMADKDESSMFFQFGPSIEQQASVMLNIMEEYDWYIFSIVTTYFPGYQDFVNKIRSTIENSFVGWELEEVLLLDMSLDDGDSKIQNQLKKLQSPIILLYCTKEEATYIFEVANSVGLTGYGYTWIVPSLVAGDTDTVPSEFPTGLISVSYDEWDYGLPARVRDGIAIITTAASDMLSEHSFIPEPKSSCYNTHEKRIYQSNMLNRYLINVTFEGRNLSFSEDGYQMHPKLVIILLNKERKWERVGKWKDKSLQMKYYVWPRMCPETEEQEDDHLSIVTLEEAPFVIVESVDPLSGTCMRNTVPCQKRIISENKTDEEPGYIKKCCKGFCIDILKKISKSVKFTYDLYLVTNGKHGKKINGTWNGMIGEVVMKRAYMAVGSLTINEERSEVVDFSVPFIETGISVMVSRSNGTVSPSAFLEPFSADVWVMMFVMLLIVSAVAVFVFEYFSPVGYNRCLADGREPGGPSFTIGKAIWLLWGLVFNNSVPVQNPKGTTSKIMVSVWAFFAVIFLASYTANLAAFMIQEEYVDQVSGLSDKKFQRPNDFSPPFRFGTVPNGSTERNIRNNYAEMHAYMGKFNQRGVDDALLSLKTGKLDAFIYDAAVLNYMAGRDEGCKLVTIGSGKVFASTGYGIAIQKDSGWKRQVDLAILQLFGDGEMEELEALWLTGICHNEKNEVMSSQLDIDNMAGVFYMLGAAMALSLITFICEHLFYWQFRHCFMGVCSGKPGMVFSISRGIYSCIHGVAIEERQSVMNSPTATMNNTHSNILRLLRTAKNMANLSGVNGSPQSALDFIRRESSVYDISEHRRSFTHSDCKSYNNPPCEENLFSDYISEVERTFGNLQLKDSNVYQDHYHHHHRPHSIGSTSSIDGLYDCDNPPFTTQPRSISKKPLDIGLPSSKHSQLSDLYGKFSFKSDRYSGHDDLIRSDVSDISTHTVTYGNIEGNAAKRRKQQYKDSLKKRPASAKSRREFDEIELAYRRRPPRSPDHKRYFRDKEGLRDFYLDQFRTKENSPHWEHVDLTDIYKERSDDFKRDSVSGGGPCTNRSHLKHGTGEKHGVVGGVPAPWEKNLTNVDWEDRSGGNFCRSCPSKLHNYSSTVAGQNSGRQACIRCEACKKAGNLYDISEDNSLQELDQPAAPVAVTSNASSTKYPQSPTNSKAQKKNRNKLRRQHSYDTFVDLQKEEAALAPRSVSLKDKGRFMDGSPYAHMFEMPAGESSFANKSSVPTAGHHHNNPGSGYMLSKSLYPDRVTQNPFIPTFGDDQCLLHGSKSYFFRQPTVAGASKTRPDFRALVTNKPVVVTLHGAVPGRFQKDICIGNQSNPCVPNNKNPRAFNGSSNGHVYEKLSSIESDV
Chain of NR2A-R (Q00959 23-389): as the sequence (Q00959 23-389) above
Chain of NR1/NR2A receptors (Q00959 23-1464, other chains not shown): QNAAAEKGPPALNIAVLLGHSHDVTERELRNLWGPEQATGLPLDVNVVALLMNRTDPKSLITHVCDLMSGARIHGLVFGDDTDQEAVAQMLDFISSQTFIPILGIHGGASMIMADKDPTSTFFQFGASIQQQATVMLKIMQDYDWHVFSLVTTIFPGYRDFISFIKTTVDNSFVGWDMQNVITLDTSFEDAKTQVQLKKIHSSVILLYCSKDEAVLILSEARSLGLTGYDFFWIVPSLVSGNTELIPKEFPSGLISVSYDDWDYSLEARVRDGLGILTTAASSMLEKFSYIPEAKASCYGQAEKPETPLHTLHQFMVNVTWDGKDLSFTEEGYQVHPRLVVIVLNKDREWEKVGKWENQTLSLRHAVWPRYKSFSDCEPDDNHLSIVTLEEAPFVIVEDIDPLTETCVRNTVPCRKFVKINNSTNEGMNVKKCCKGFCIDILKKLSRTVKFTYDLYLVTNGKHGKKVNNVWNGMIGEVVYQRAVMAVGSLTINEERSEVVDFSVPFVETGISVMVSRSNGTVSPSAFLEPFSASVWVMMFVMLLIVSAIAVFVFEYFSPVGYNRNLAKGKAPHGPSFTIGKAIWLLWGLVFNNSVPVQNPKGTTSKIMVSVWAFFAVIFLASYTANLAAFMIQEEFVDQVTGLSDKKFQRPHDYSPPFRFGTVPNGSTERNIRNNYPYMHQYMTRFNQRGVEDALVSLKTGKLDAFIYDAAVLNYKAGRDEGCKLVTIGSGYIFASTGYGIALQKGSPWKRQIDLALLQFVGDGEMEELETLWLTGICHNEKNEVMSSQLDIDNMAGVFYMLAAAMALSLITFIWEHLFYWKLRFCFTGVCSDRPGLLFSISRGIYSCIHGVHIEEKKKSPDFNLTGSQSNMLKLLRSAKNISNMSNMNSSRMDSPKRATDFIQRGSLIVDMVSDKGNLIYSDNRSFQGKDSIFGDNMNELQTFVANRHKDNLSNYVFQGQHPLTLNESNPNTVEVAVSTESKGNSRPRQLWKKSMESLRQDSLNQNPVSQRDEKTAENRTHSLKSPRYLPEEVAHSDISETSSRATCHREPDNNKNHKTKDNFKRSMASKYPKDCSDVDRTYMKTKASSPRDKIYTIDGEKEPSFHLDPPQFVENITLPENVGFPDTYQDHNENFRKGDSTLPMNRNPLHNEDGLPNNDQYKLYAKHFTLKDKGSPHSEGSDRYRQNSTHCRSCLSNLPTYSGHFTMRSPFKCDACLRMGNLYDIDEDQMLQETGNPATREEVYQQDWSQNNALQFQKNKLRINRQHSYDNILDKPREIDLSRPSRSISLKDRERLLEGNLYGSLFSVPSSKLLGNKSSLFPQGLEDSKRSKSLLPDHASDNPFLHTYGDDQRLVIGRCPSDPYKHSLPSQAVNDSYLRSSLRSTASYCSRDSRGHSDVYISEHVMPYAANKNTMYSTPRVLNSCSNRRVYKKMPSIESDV
Chain of NR2B-R (Q00960 27-390, one chain of several): as the sequence (Q00960 27-390) above
Chain of ovalbumin (P01012 whole entry, species assumed): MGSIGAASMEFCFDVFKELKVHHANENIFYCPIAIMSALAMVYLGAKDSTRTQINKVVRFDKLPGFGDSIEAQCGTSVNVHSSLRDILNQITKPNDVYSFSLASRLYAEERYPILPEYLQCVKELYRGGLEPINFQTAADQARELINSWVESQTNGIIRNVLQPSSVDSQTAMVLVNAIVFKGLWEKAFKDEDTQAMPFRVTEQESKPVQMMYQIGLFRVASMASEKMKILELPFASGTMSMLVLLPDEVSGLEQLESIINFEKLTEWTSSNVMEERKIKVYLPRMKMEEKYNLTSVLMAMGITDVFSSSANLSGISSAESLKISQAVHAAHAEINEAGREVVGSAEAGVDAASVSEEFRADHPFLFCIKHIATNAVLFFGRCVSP

As for `N[C@@H](CCC(=O)O)C(=O)O` [Glutamate, glutamate], the “[14C]Spermine bound to NR2B-R in presence of addition, %” value (“[14C]Spermine bound to NR2B-R … %” below) in experiment [1] worked out at 102%. Further, the “[3H]Ifenprodil bound to NR2B-R in presence of addition, %” value (shortened to “[3H]Ifenprodil bound to NR2B-R … %”) in experiment [2] was found to be 103%.

On to `NCC(=O)O` [Glycine, glycine], for which, in experiment [2], the “[3H]Ifenprodil bound to NR2B-R … %” value is given as 102%.

For the compound `NCCCCNCCCN` [Spermidine, spermidine], in [1], the “[14C]Spermine bound to NR2B-R … %” value was 6%. The “[3H]Ifenprodil bound to NR2B-R … %” value in [2] was found to be 98%.

For the compound `CC(C(O)c1ccc(O)cc1)N1CCC(Cc2ccccc2)CC1` (stereo not shown) [ifenprodil], the “[14C]Spermine bound to NR2B-R … %” value in [1] came out at 108%. Moreover, in [3], the “Bmax of ifenprodil binding, NR1-R” value was 5.6 nmol/mg R domain protein; the “Bmax of ifenprodil binding, NR1-R, equivalent” value was determined as 0.24 mol/mol R domain protein; the “Hill coefficient for binding of ifenprodil to NR1-R” value is given as ~1.0. In addition, the “Specific binding of [3H]ifenprodil to NR2A-R” value in experiment [4] is “no specific binding”. Besides, in [2], the “Bmax of ifenprodil binding, NR2B-R” value came to 5.2 nmol/mg R domain protein; the “Bmax of ifenprodil binding, NR2B-R, equivalent” value came out at 0.21 mol/mol R domain protein; the “Hill coefficient for binding of ifenprodil to NR2B-R” value was ~1.0; the “[3H]Ifenprodil bound to NR2B-R … %” value came to 15%. In addition, the “Change in the CD spectra of NR2A-R” value on NR2A-R (2 µM ifenprodil) is “no change”. Further, the pIC50 on NR1/NR2B receptors [5] is 6.47.

For the compound `NC[C@@H]1O[C@H](O[C@H]2[C@@H](O)[C@H](O[C@@H]3[C@@H](O)[C@H](N)C[C@H](N)[C@H]3O[C@H]3O[C@H](CN)[C@@H](O)[C@H](O)[C@H]3N)O[C@@H]2CO)[C@H](N)[C@@H](O)[C@@H]1O` [neomycin B], in [6], the “Effect of aminoglycoside on spermine binding to NR2A-R” value (from here on “Effect of aminoglycoside … to NR2A-R”) is given as “inhibited”. For the same compound, the “Effect of aminoglycoside on spermine binding to NR2B-R” value (from here on “Effect of aminoglycoside … to NR2B-R”) in experiment [1] was “inhibited”. The “Effect of aminoglycoside on spermine binding to NR1-R” value (from here on “Effect of aminoglycoside … to NR1-R”) in [7] is on record as “inhibited”.

As for `NC[C@@H]1O[C@H](O[C@H]2[C@@H](O)[C@H](O[C@@H]3[C@@H](O)[C@H](N)C[C@H](N)[C@H]3O[C@H]3O[C@H](CO)[C@@H](O)[C@H](O)[C@H]3N)O[C@@H]2CO)[C@H](N)[C@@H](O)[C@@H]1O` [paromomycin], the “Effect of aminoglycoside … to NR2A-R” value in experiment [6] is given as “inhibited”. Moreover, in experiment [1], the “Effect of aminoglycoside … to NR2B-R” value is listed as “inhibited”. Further, in experiment [7], the “Effect of aminoglycoside … to NR1-R” value was “inhibited”.

The pKd is the negative decadic logarithm of the Kd, by convention in mol/L. What is called pEC50 is −log10 of the EC50, conventionally taken in molar units. Low readings indicate a large EC50, high ones a small EC50. With `NCCCNCCCCNCCCN` [spermine], the “Bmax of spermine binding, NR2A-R, equivalent” value in experiment [6] is 0.29 mol/mol R domain. In addition, the “Hill coefficient for spermine binding to NR2A-R” value in [6] is given as “close to unity”. The negative logarithm of the Kd (pKd) in [6] is 3.85; in experiment [1] (Kd of spermine at NR2B-R calculated from k1 and k−1, from rate constants), 4.59; at NR1-R, 4.70; at NR2A-R, 3.88; at NR2B-R it was 4.46; on NR1-R (E181Q) [9] it was 4.13. For the same compound, in [7], the negative-log Kd (pKd) was 4.72. Moreover, in [6] (Scatchard plot), the “Bmax of spermine binding, NR2A-R” value was found to be 6.9 nmol/mg R domain protein. Besides, in [6] (ratio of Kd), the “Affinity for spermine lower at NR2A R domain compared to NR2B R domain” value is on record as 4 fold. Besides, the “Bmax of spermine binding, NR2B-R, equivalent” value in [1] came out at 0.32 mol/mol R domain. In [1], the “Hill coefficient for spermine binding to NR2B-R” value is reported as “close to unity”. Besides, the “[14C]Spermine bound to NR2B-R … %” value in experiment [1] was determined as 7%. In addition, the “Bmax of spermine binding, NR2B-R” value in [1] (Scatchard plot) is listed as 7.3 nmol/mg R domain protein. Besides, in experiment [1] (after addition of nonlabeled 3 mM spermine), the “Dissociation rate constant k−1 of [14C]spermine at NR2B-R” value amounted to 0.22 min⁻¹. Further, in [1] (average at 12.5, 25 and 50 µM [14C]spermine), the “Association rate constant k1 of [14C]spermine at NR2B-R” value is reported as 8,500 M^−1·min^−1. Besides, the “[3H]Ifenprodil bound to NR2B-R … %” value in experiment [2] amounted to 99%. For the same compound, the “Binding of spermine to E181Q mutant compared to wild-type NR1-R” value at NR1-R (E181Q) [8] is listed as “reduced”. In addition, on ovalbumin, the “Binding of spermine to ovalbumin” value is “little binding”. The “Bmax of spermine binding, NR1-R, equivalent” value in [7] came to 0.24 mol/mol R domain. The “Hill coefficient for spermine binding to NR1-R” value in experiment [7] is given as “close to unity”. In addition, the “Bmax of spermine binding, NR1-R” value in experiment [7] (Scatchard plot) came out at 6.3 nmol/mg R domain protein. Further, the pEC50 is 3.56 on NR1/NR2A receptors and 4.11 at NR1/NR2B receptors [10]. Also, the “Hill coefficient for spermine at NR1/NR2A” value on NR1/NR2A receptors (oocytes, −20 mV) amounted to 1.17. For the same compound, on NR1/NR2B receptors [10] (oocytes, −20 mV), the “Hill coefficient for spermine at NR1/NR2B” value worked out at 1.05.

Regarding `[H]/N=C(/N)N[C@H]1[C@H](O)[C@@H](O)[C@H](O[C@@H]2O[C@@H](C)[C@](O)(C=O)[C@H]2O[C@@H]2O[C@@H](CO)[C@H](O)[C@@H](O)[C@@H]2NC)[C@@H](N/C(N)=N\[H])[C@@H]1O` [streptomycin], in [6], the “Effect of aminoglycoside … to NR2A-R” value is “inhibited”. The “Effect of aminoglycoside … to NR2B-R” value in [1] is on record as “inhibited”. In experiment [7], the “Effect of aminoglycoside … to NR1-R” value was “inhibited”.

On to kanamycin A, for which the “Effect of aminoglycoside … to NR2A-R” value in [6] was “inhibited”. Besides, the “Effect of aminoglycoside … to NR2B-R” value in [1] was “inhibited”. Also, in experiment [7], the “Effect of aminoglycoside … to NR1-R” value is on record as “inhibited”.
